This passage reports Ki results from ChEMBL document CHEMBL1148394, “Design, synthesis, and in vitro biological evaluation of small molecule inhibitors of estrogen receptor alpha coactivator binding” (J Med Chem, 2004).

Structures are written as SMILES. Bounds are passed on as bounds.

The assay has as its target Estrogen receptor (Homo sapiens, UniProt Q92731+P03372). In words: Binding affinity towards estrogen receptor was determined. In kind it is protein assay.
Take `CC(C)CC[C@H]1S[C@@H](CCC(C)C)S[C@@H](CCC(C)C)S1`: the Ki – broadly, the equilibrium dissociation constant of an inhibitor or competing ligand from its target – was above 1000 µM.
`CCC(C)CNCCc1ccc2ccc(CCNCC(C)CC)cc2c1` (stereo not drawn): the inhibition constant Ki was above 1000 µM.
Then `CCCNc1nc(NCCC)nc(NCCC)n1`, with 290 µM; and `c1ccc(CCc2cc(NCc3ccccc3)nc(NCc3ccccc3)n2)cc1`, with 49 µM; and `CC(C)CCNCCc1ccc2ccc(CCNCCC(C)C)cc2c1`, with above 1000 µM.
Take `CC(C)CCc1nc(NCC(C)C)nc(NCC(C)C)n1`: the Ki is 650 µM.
On to `CC(C)CNC(=O)[C@]1(C)C[C@](C)(C(=O)NCC(C)C)C[C@](C)(C(=O)NCC(C)C)C1`, for which the Ki is above 1000 µM.
With `c1ccc2cc(CNc3nc(NCc4ccc5ccccc5c4)nc(NCc4ccc5ccccc5c4)n3)ccc2c1`, the Ki amounted to 290 µM.
Compound `CCCCCCCNc1nc(NCCCCCCC)nc(NCCCCCCC)n1` had a Ki of 290 µM.
Then `CC(C)CCc1nc(NCC(C)C)nc(N(CC(=O)O)CC(C)C)n1`, with 790 µM; and `c1ccc(CNc2nc(NCc3ccccc3)nc(NCc3ccccc3)n2)cc1`, with 240 µM; and `CC(C)CCc1nc(NCC(C)C)nc(N(CC(=O)O)C(C)C)n1`, with 410 µM.
Next, `CC(C)CNc1nc(NCC(C)C)nc(NCC(C)C)n1`: 590 µM.
